Measured values taken from patent US10000474B2, “Histone deacetylase inhibitors and uses thereof” (MUSC FOUNDATION FOR RESEARCH DEVELOPMENT, priority 2014, dated 2018).
Counter-ions that a name gives are not always drawn.

How the values were obtained:
Assay type in all cases: biochemical
Details in all cases: test concentration not given; average of triplicate
[1] = target: T1, Recombinant human HDAC3/NcoR2 (Homo sapiens, UniProt O15379); test: HDAC inhibitory assay, HDAC3 (Boc-Lys(Ac)-AMC substrate)
T1 construct: purchased BPS Biosciences
T1 sequence (O15379 whole entry): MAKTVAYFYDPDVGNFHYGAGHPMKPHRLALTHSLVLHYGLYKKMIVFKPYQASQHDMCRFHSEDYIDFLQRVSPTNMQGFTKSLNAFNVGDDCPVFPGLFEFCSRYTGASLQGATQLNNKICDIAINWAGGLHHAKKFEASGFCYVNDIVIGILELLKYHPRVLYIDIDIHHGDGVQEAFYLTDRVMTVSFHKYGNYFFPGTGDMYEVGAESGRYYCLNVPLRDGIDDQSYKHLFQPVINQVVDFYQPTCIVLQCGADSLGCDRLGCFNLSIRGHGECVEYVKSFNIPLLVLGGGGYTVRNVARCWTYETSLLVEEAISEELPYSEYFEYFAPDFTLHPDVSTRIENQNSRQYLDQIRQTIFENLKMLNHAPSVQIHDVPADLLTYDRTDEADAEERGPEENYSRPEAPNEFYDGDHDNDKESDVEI
T1 sequence (Q9Y618 395-489 partner limits assumed): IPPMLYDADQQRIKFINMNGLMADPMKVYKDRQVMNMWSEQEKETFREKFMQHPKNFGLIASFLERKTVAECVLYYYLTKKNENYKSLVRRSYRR
Method: (§1) The compounds of Examples 1-12 and 14-16 were evaluated for their ability to act as inhibitors of human HDAC. The compound of Example 13 was not tested. Recombinant human HDAC1, HDAC2, HDAC3/NcoR2, HDAC5, HDAC6, HDAC8, HDAC9, HDAC10 and HDAC11 were purchased from BPS Biosciences. Recombinant human HDAC4 and HDAC7 were purchased from Millipore. The substrate Boc-Lys(Ac)-AMC and Boc-Lys(Tfa)-AMC were purchased from Bachem. The substrate Ac-RHK(Ac)K(Ac)-AMC was purchased from Enzo Life Sciences. Due to the different specific activities of each isoform, different amount of enzyme was used in each isoform screening assay. In these assays, trichostatin A (TSA), suberanilohydroxamic acid and diphenylacetohydroxamic acid (DPAHA) were employed as positive controls. All determinations were carried out in triplicate, and reported values were the average of these determinations, which in no case varied by more than 5%.
(§2) Then 25 μl of the Boc-Lys(Ac)-AMC substrate (50 μM final concentration) was added and incubated at 37° C. for 30-60 min, and followed by adding 50 μl of developer (1 mg/ml trypsin and 1 μM TSA). The last step was reading the samples in a SpectraMax M5 plate reader (Molecular Devices) at an excitation wavelength of 360 nm and an emission wavelength of 460 nm.

[2] = target: T2, Recombinant human HDAC1 (Homo sapiens, UniProt Q13547); test: HDAC inhibitory assay, HDAC1 (Boc-Lys(Ac)-AMC substrate)
T2 construct: purchased BPS Biosciences
T2 sequence (Q13547 whole entry): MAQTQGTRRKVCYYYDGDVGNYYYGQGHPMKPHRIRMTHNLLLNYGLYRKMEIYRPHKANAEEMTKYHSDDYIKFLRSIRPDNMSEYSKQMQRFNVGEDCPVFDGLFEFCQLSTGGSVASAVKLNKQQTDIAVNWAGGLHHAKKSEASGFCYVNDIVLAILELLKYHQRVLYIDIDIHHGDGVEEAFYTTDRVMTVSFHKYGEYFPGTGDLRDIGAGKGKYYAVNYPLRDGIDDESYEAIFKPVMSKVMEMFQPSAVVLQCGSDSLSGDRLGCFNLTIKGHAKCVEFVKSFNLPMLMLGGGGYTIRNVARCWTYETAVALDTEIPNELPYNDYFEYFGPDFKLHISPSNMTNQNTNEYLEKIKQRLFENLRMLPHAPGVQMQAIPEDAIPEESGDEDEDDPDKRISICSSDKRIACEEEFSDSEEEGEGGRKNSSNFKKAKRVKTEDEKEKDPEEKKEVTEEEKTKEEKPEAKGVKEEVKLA
Method: as §1, §2

[3] = target: T3, Recombinant human HDAC11 (Homo sapiens, UniProt Q96DB2); test: HDAC inhibitory assay, HDAC11 (Boc-Lys(Tfa)-AMC substrate)
T3 construct: purchased BPS Biosciences
T3 sequence (Q96DB2 1-347): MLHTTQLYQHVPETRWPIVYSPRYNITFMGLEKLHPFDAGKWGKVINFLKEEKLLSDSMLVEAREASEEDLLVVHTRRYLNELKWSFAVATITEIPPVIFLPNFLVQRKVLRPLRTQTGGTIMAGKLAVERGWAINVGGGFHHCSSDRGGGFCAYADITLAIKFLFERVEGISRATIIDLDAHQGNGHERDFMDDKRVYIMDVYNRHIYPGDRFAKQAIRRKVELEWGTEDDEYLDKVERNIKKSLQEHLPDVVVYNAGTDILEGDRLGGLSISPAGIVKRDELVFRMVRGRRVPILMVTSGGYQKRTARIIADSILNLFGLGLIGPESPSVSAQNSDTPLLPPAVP
Method: as §1
(§3) For evaluating the inhibition of class IIa HDACs (HDAC4, HDAC5, HDAC7 and HDAC9) and class IV HDAC (HDAC11), 10 μl of test samples were first incubated with 1 ng HDAC4 (specific activity=15400 pmol/min/μg), 5 ng HDAC5 (specific activity=2521 pmol/min/μg), 1 ng HDAC7 (specific activity=26340 pmol/min/μg), 5 ng HDAC9 (specific activity=3000 pmol/min/μg), and 500 ng HDAC11 (specific activity=1.8 pmol/min/μg) respectively. Then 25 μl of the Boc-Lys(Tfa)-AMC substrate (50 μM final concentration) was added and incubated at 37° C. for 30-60 min, and followed by adding 50 μl of developer. The last step was to read the samples in a SpectraMax M5 plate reader (Molecular Devices) at an excitation wavelength of 360 nm and an emission wavelength of 460 nm.

[4] = target: T4, Recombinant human HDAC4 (Homo sapiens, UniProt P56524); test: HDAC inhibitory assay, HDAC4 (Boc-Lys(Tfa)-AMC substrate)
T4 construct: purchased Millipore
T4 sequence (P56524 whole entry): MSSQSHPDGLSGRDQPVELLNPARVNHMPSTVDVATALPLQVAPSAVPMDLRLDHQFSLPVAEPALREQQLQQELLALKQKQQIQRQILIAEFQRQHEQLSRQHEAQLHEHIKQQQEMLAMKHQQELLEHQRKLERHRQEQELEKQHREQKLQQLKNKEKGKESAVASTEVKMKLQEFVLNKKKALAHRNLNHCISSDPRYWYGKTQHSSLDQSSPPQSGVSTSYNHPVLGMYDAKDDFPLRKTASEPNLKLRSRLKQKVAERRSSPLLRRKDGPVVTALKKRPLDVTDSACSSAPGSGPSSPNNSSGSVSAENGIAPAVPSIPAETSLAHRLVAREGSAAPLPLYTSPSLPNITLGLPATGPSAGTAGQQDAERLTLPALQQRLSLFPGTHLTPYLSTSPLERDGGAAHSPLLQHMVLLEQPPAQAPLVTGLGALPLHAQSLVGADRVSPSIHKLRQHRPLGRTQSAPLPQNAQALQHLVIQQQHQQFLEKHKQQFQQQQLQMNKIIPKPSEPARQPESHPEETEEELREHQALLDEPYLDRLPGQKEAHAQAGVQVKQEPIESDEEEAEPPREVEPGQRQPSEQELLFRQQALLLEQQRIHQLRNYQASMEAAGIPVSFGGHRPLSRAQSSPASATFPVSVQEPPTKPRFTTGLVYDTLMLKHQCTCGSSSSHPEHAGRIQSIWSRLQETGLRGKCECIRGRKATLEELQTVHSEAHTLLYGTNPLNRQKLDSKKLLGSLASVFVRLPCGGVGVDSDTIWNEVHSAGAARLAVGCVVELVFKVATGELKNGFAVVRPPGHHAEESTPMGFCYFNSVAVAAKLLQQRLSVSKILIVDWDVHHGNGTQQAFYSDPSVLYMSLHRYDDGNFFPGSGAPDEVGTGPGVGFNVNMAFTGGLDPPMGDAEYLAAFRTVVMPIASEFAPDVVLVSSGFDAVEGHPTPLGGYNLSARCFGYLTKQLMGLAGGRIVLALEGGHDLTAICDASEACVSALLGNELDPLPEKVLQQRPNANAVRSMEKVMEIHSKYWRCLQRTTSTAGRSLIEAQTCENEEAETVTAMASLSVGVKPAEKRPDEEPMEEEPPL
Method: as §1, §3

[5] = target: T5, Recombinant human HDAC10 (Homo sapiens, UniProt Q969S8); test: HDAC inhibitory assay, HDAC10 (Boc-Lys(Ac)-AMC substrate)
T5 construct: purchased BPS Biosciences
T5 sequence (Q969S8 1-669): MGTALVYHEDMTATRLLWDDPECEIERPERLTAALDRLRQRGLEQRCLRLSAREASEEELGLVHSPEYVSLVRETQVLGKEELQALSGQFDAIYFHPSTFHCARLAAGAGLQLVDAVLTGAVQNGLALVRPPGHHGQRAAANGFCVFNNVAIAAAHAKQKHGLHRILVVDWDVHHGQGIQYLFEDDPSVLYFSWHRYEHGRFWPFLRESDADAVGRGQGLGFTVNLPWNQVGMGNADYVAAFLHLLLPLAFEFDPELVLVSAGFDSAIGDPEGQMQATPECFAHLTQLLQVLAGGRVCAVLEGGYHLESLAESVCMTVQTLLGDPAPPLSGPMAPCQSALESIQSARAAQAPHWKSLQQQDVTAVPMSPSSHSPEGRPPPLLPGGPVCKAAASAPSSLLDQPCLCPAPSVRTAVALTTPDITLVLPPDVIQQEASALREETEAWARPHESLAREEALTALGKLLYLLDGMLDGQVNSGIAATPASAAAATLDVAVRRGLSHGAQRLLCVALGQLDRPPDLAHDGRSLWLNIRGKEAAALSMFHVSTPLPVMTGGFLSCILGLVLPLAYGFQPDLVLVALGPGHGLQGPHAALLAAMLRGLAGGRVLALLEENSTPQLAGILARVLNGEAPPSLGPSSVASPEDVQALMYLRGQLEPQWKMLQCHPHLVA
Method: as §1, §2

| SMILES | HDAC 3 inhibitory activity [1] | HDAC 1 inhibitory activity [2] | HDAC 11 inhibitory activity [3] | HDAC 4 inhibitory activity [4] | HDAC 10 inhibitory activity [5] |
| --- | --- | --- | --- | --- | --- |
| O=C(Nc1ccccc1)c1coc(-c2ccccc2O)n1 [Example 1, 2-(2-Hydroxyphenyl)-N-phenyloxazole-4-carboxamide] | 22.5% | 62.5% | 21.8% | 17.1% | 48.8% |
| O=C(NC(c1ccccc1)c1ccccc1)c1coc(-c2ccccc2O)n1 [Example 2, N-Benzhydryl-2-(2-hydroxyphenyl)oxazole-4-carboxamide] | 37.8% | 68.0% | 23.1% | 20.7% | 47.1% |
| O=C(NCC(c1ccccc1)c1ccccc1)c1coc(-c2ccccc2O)n1 [Example 3, N-(2,2-Diphenylethyl)-2-(2-hydroxyphenyl)oxazole-4-carboxamide] | 23.7% | 43.9% | 39.5% | 8.5% | 35.7% |
| O=C(NCCC(c1ccccc1)c1ccccc1)c1coc(-c2ccccc2O)n1 [Example 4, N-(3,3-Diphenylpropyl)-2-(2-hydroxyphenyl)oxazole-4-carboxamide] | 37.5% | 35.9% | 45.2% | 25.8% | 69.8% |
| O=C(Nc1ccc(-c2ccccc2)cc1)c1coc(-c2ccccc2O)n1 [Example 5, N-([1,1′-Biphenyl]-4-yl)-2-(2-hydroxyphenyl)oxazole-4-carboxamide] | 30.2% | 62.2% | 28.4% | 25.5% | 58.6% |
| O=C(NCc1ccc(-c2ccccc2)cc1)c1coc(-c2ccccc2O)n1 [Example 6, N-([1,1′-Biphenyl]-4-ylmethyl)-2-(2-hydroxyphenyl)oxazole-4-carboxamide] | 40.1% | 61.4% | 47.8% | 24.4% | 48.7% |
| O=C(NCc1cccc2ccccc12)c1coc(-c2ccccc2O)n1 [Example 7, 2-(2-Hydroxyphenyl)-N-(naphthalen-1-ylmethyl)oxazole-4-carboxamide] | 32.3% | 47.8% | 49.9% | 21.3% | 44.5% |
| O=C(NCCc1c[nH]c2ccccc12)c1coc(-c2ccccc2O)n1 [Example 8, N-(2-(1H-Indol-3-yl)ethyl)-2-(2-hydroxyphenyl)oxazole-4-carboxamide] | 18.9% | 41.7% | 26.0% | 7.5% | 44.8% |
| O=C(NCCCCN1C(=O)c2ccccc2C1=O)c1coc(-c2ccccc2O)n1 [Example 9, N-(4-(1,3-Dioxoisoindolin-2-yl)butyl)-2-(2-hydroxyphenyl)oxazole-4-carboxamide] | 11.0% | 35.2% | 33.8% | 17.5% | 32.1% |
| O=C(NCCCCNC(=O)C(c1ccccc1)c1ccccc1)c1coc(-c2ccccc2O)n1 [Example 10, N-(4-(2,2-Diphenylacetamido)butyl)-2-(2-hydroxyphenyl)oxazole-4-carboxamide] | 4.0% | 27.2% | 30.1% | 4.8% | 56.5% |
| O=C(NCCCCNC(=S)NCCC(c1ccccc1)c1ccccc1)c1coc(-c2ccccc2O)n1 [Example 11, N-(4-(3-(3,3-Diphenylpropyl)thioureido)butyl)-2-(2-hydroxyphenyl)oxazole-4-carboxamide] | 3.7% | 43.3% | 69.9% | 55.8% | 91.2% |
| O=C(NCCCCNCCC(c1ccccc1)c1ccccc1)c1coc(-c2ccccc2O)n1 [Example 12, N-(4-((3,3-Diphenylpropyl)amino)butyl)-2-(2-hydroxyphenyl)oxazole-4-carboxamide hydrochloride] | 18.1% | 32.2% | 39.1% | 6.5% | 26.2% |
| O=C(O)c1ccc(CNC(=O)c2coc(-c3ccccc3O)n2)cc1 [Example 14, 4-((2-(2-Hydroxyphenyl)oxazole-4-carboxamido)methyl)benzoic acid] | 39.7% | 70.1% | 49.2% | 24.2% | 47.2% |
| O=C(Nc1ccccc1)c1ccc(CNC(=O)c2coc(-c3ccccc3O)n2)cc1 [Example 15, 2-(2-Hydroxyphenyl)-N-(4-(phenylcarbamoyl)benzyl)oxazole-4-carboxamide] | 15.8% | 47% | 20.1% | 18.3% | 56.3% |
| O=C(CNC(=O)c1coc(-c2ccccc2O)n1)Nc1ccccc1 [Example 16, 2-(2-Hydroxyphenyl)-N-(2-oxo-2-(phenylamino)ethyl)oxazole-4-carboxamide] | 36.9% | 25.5% | 46.6% | 28.1% | 54.7% |
